Assay results from article PMC9722750, “Antibacterial and β-amyloid precursor protein-cleaving enzyme 1 inhibitory polyketides from the fungus Aspergillus chevalieri” (Frontiers in Microbiology, 2022).
Values after ≈ are worked out from the molar mass of the structure shown. Structures can show the parent of a compound that is named as a salt.

What was measured:
[1] = test system: Escherichia coli ATCC25922; assay: Antibacterial assay; assay type: cell-based
Description: (§1) In this study, the tested bacteria strains, Escherichia coli ATCC25922, Staphylococcus aureus subsp. aureus ATCC29213, Salmonella enterica subsp. enterica ATCC14028, Pseudomonas aeruginosa ATCC27853, methicillin-resistant S. aureus (MRSA) were purchased from China General Microbiological Culture Collection Center (CGMCC). All the strains were cultured in Mueller-Hinton broth (Oxoid, Thermo Fisher Scientific) at 37°C with shaking at 200 rpm overnight. Each culture was diluted 40-fold in fresh MHB broth and incubated at 37°C with shaking (200 rpm) for another 2–3 h. The mid-log phase cultures were diluted to a concentration of 5 × 10^5 CFU/mL by McFarland Standards, which was used as seeding solution for following antibacterial assays. Each well of the compound-containing 96-well plates was seeded with 100 μL of aforementioned seeding solution, giving a final compound concentration 200 μM. Plates were covered and incubated at 37°C for 24 h. The inhibitory rates were calculated by [(1-OD625sample)/OD625negative control] × 100%. Penicillin G sodium and ceftazidime were used as positive controls (inhibitory rates >99%) ([Zhao Z.-Z. et al., 2018]). Compounds were first tested for their potential against five bacterial strains at a single concentration of 200 μM. If the inhibitory rate above 50%, different concentrations of the compounds were further evaluated for the antibacterial ability.

[2] = test system: Pseudomonas aeruginosa ATCC27853; assay: Antibacterial assay; assay type: cell-based; conditions: for inhibition at 200 µM: Pseudomonas aeruginosa, ATCC27853, read-out: Inhibition rate against Pseudomonas aeruginosa
Description: as §1

[3] = test system: Salmonella enterica subsp. enterica ATCC14028; assay: Antibacterial assay; assay type: cell-based; conditions: for inhibition at 200 µM: Salmonella enterica, ATCC14028, 24 h, read-out: Inhibition rate against Salmonella enterica subsp. enterica
Description: as §1

[4] = test system: Staphylococcus aureus subsp. aureus ATCC29213; assay: Antibacterial assay; assay type: cell-based; conditions: 200 μM, 24 h
Description: as §1

[5] = test system: methicillin-resistant S. aureus (MRSA); assay: Antibacterial assay; assay type: cell-based, Staphylococcus aureus; conditions: for inhibition at 200 µM: read-out: Inhibition rate against Methicillin-resistant Staphylococcus aureus
Description: as §1

[6] = biological target: β-amyloid precursor protein-cleaving enzyme 1 (β-secretase, BACE1) (Homo sapiens, UniProt P56817); assay: BACE1 FRET assay; assay type: biochemical; conditions: 3 h at room temperature, read-out: IC50 BACE1 inhibition
Chain of β-amyloid precursor protein-cleaving enzyme 1 (β-secretase, BACE1) (P56817 22-501 limits assumed): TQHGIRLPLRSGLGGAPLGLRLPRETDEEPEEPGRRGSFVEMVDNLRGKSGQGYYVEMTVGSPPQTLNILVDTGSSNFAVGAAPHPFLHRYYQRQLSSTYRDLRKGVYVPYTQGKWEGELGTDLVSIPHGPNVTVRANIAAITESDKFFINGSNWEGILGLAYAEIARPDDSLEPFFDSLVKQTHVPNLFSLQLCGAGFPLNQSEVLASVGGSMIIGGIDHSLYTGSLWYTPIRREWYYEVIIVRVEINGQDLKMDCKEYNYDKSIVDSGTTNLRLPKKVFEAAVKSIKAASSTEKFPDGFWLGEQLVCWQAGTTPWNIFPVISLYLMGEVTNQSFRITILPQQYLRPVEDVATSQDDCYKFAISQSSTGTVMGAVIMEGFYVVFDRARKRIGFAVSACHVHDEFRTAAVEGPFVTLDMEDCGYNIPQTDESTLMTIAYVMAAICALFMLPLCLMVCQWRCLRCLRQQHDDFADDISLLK
Description: β-amyloid precursor protein-cleaving enzyme 1 (β-secretase, BACE1) assays were performed according to the literature ([Qi et al., 2018]; [Yatsu et al., 2019]). First, 10 μL of the test sample, 10 μL of the 722 nM BACE1 substrate (Rh-[…]-Quencher in 50 mM ammonium bicarbonate), and 10 μL of the BACE1 enzyme (1 U/mL) were mixed in black 384-well plates and incubated for 3 h at room temperature. The fluorescence intensity was measured at 540 nm excitation and 590 nm emission using a microplate reader (Tecan Spark 10M, TECAN, Männedorf, Switzerland) at the time points of 1 h and 3 h. The BACE1 inhibition rate was calculated by the following equation: BACE1 inhibition rate (%) = {1–[(S–S0)–(B–B0)/(C–C0)–(B–B0)]} × 100, where C is the fluorescence of a DMSO control (enzyme, substrate, and assay buffer with DMSO) after 3 h of incubation, C0 is the fluorescence of the DMSO control at 1 h after incubation, B is the fluorescence of a non-enzyme control (substrate and assay buffer with DMSO) after 3 h of incubation, B0 is the fluorescence of the non-enzyme control at 1 h after incubation, S is the fluorescence of the tested samples (enzyme, sample solution, and substrate) after 3 h of incubation, and S0 is the fluorescence of the tested samples at 1 h after incubation. The IC50 values were calculated by GraphPad Prism software (v5.02, CA, USA).

[7] = in vitro; assay type: cell-based; conditions: human
Description: The human lung cancer cell line A549 used in this study was purchased from Conservation Genetics CAS Kunming Cell Bank. The cells were cultured in high-glucose DMEM with 10% fetal bovine serum, 100 mg/mL streptomycin, 100 U/mL penicillin, and kept in an incubator at 37°C under an atmosphere of 5% CO2. The cell viability was assessed by 3-(4,5-dimethylthiazol-2-yl)-2,5-diphenyltetrazolium bromide (MTT) method. […] In brief, 100 μL of adherent cells was seeded to each well of a 96-well cell culture plate. The plate was kept for 12 h for adherence. […] However, suspended cells were seeded with the same density of 1 × 10^5 cells/mL every 100 μL of culture medium before adding the test compounds. Then the plate was incubated for another 48 h. After 48 h of incubation, 100 μg of MTT was added to each well, another 4 h of incubation was continued at 37°C. After removal of 100-μL culture medium, the cells were lysed with 20% SDS-50% DMF (100 μL). The remained lysates were subjected to measure the optical density value at 595 nm with a 96-well microtiter plate reader (Tecan Spark 10M, Switzerland). […] All the experiments were in triplicates. The IC50 value was calculated by a published method ([Chen et al., 2018]).

[8] = Staphylococcus aureus, MRSA, 200 μM, 24 h

Molecule: 1,4,5-trihydroxy-7-methoxy-2-methyl-anthraquinone [Compound 14]
- Inhibition rate against Escherichia coli ([1]; 200 μM, 24 h): – (This symbol “–” represent no activity)
- Inhibition rate against Pseudomonas aeruginosa ([2]; 200 μM, 24 h): 38.2%
- Inhibition rate against Salmonella enterica subsp. enterica ([3]; 200 μM, 24 h): – (This symbol “–” represent no activity)
- Inhibition rate against Staphylococcus aureus subsp. aureus [4]: – (This symbol “–” represent no activity)
- Inhibition rate against Methicillin-resistant Staphylococcus aureus ([5]; 200 μM, 24 h): 52.0%

Molecule: CCCCCC1Cc2c(cc(CC=C(C)C)c(O)c2C(=O)O)O1 (racemic) [Compound 1, (±)-Chevalieric acid]
- IC50 [6]: 101 µM

Molecule: CC(C)(O/N=C(\C(=O)N[C@@H]1C(=O)N2C(C(=O)[O-])=C(C[n+]3ccccc3)CS[C@H]12)c1csc(N)n1)C(=O)O [Ceftazidime, ceftazidime, reference compound]
- inhibition at 200 µM ([1]; Escherichia coli, ATCC25922, 24 h, read-out: Inhibition rate against Escherichia coli): 99.8%
- inhibition at 200 µM [3]: 99.3%

Molecule: COc1cc(O)cc2c1C(=O)c1c(O)cc(C)cc1[C@@H]2[C@@H](C)CC(C)=O [Compound 2, (10S,12S)-Chevalierone]
- inhibition at 200 µM ([2]; 200 μM, 24 h): 38.2%

Molecule: COc1cc(O)cc2c1C(=O)c1c(O)cc(C)cc1[C@@H]2[C@H](C)CC(C)=O [Compound 3, (10S,12R)-Chevalierone]
- antibacterial activity against P. aeruginosa (in words) [2]: significant antibacterial activities
- inhibition at 200 µM ([2]; 200 μM, 24 h): 81.9%
- antibacterial activity against MRSA (in words) [5]: significant antibacterial activities
- inhibition at 200 µM [5, 8]: 74.1%

Molecule: COc1cc(O)cc2c1C(=O)c1c(O)cc(C)cc1[C@H]2[C@H](C)CC(C)=O [Compound 4, (10R,12R)-Chevalierone]
- antibacterial activity against P. aeruginosa (in words) [2]: significant antibacterial activities
- inhibition at 200 µM ([2]; 200 μM, 24 h): 81%
- antibacterial activity against MRSA (in words) [5]: significant antibacterial activities
- inhibition at 200 µM [5, 8]: 85%

Molecule: COc1cc(O)cc2c1C(=O)c1c(O)cc(C)cc1[C@H]2[C@@H](C)CC(C)=O [Compound 5, (10R,12S)-Chevalierone]
- antibacterial activity against P. aeruginosa (in words) [2]: significant antibacterial activities
- inhibition at 200 µM ([2]; 200 μM, 24 h): 91.5%
- antibacterial activity against MRSA (in words) [5]: significant antibacterial activities
- inhibition at 200 µM [5, 8]: 88.5%
- MIC50 ([5]; Staphylococcus aureus, MRSA, read-out: MIC50 against MRSA): 44 µM (≈ 15.6 µg/mL)

Molecule: CCCCCCCc1c(O)cc2c(c1C=O)OC(C)(C)C=C2 [Compound 6, asperglaucin B]
- IC50 [6]: > 100 µM
- MIC ([5]; Staphylococcus aureus, MRSA, read-out: MIC against MRSA): 44 µM (≈ 13.3 µg/mL)

Molecule: CCC/C=C/c1cc2c(C=O)c(O)c(CC=C(C)C)cc2o1 [Compound 7, 2-(2′,3-epoxy-1′,3′-heptadienyl)-6-hydroxy-5-(3-methyl-2-butenyl)benzaldehyde]
- IC50 [6]: > 100 µM

Molecule: CCCCC/C=C/c1c(O)cc(CC=C(C)C)c(O)c1C=O [Compound 8, tetrahydroauroglaucin]
- IC50 [6]: 36.1 µM

Molecule: CCC/C=C/C=C/c1c(O)cc(CC=C(C)C)c(O)c1C=O [Compound 9, dihydroauroglaucin]
- IC50 [6]: > 100 µM

Molecule: CCCCCCCc1c(O)cc(CC=C(C)C)c(O)c1C=O [Compound 10, flavoglaucin]
- IC50 at 48 h [7]: 39.7 µM
- IC50 [6]: 40.9 µM

Molecule: C/C=C/C=C/CCc1c(O)cc(CC=C(C)C)c(O)c1C=O [Compound 11, isodihydroauroglaucin]
- IC50 [6]: 34.9 µM

Molecule: CC(C)=CCc1cc2oc(=O)ccc2c(C=O)c1O [Compound 12, cristaldehyde A]
- IC50 [6]: > 100 µM

Molecule: CCC[C@@H](O)[C@@H]1C=Cc2c(cc(CC=C(C)C)c(O)c2C=O)O1 [Compound 13, (3′S,4′R)-6-(3′,5-epoxy-4′-hydroxy-1′-heptenyl)-2-hyd roxy-3-(3″-methyl-2″-butenyl)benzaldehyde]
- IC50 [6]: > 100 µM

Molecule: COc1cc(O)c2c(c1)C(=O)c1cc(C)cc(O)c1C2=O [Compound 15, physcion]
- inhibition at 200 µM ([2]; 200 μM, 24 h): 38%

Molecule: CC1(C)S[C@@H]2[C@H](NC(=O)Cc3ccccc3)C(=O)N2[C@H]1C(=O)O [Penicillin G sodium, Penicillin G sodium salt, reference compound]
- inhibition at 200 µM ([2]; 200 μM, 24 h): 99.9%
- inhibition at 200 µM [3]: 75.7%
- inhibition at 200 µM [5, 8]: 60.5%
